From US12275729B2 (Merck Sharp & Dohme LLC, priority 2017, dated 2025) come the findings set out here.

The structures appear in SMILES notation.

The target in this assay is IDO1 (Homo sapiens, UniProt P14902). The assay can be described thus: IDO1 Cellular Assay in HeLa Cells Stimulated with IFNγ. It is filed as cell-based. The settings on record: about 48 hours, read-out: Hela IC50. As to the method: Biological Assays IDO1 Cellular Assay in HeLa Cells Stimulated with IFNγ
Sequence of IDO1 (P14902 whole entry): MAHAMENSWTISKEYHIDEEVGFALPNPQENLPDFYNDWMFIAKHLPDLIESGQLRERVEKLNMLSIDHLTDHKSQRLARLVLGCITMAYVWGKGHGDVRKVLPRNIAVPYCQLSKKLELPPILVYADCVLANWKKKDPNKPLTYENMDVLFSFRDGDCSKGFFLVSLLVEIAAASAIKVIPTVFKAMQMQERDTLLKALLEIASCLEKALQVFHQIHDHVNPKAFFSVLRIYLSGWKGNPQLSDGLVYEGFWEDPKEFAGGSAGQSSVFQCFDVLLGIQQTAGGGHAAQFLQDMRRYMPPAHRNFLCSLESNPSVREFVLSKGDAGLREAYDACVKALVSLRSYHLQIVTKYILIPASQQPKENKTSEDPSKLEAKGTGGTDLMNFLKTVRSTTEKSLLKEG
HeLa cells were cultured in complete HeLa culture medium (90% EMEM, 10% heat-inactivated fetal bovine serum) and expanded to about 1×10^9 cells. The cells were then collected and frozen down at 1×10^7 cells/vial in 1 mL frozen medium (90% complete HeLa culture medium, 10% DMSO).
Compounds to be tested were serially diluted in ten 3-fold steps in DMSO starting from 10 mM DMSO stocks in Echo low volume plate(s).
Frozen HeLa cells were thawed and transferred into HeLa assay medium (99% complete HeLa culture medium, 1% Pen/Strep) with 20 mL medium/vial of cells. The cells were spun down at 250 g in a table top centrifuge for 5 min and suspended in same volume of HeLa assay medium. The cells were then counted and adjusted to a density of 2×10^5 cells/mL in HeLa assay medium. Sterile L-tryptophan were added to the cells with final concentration of 300 uM L-tryptophan. A small aliquot (2 mL/plate) of HeLa cells were set aside and were not treated with IFNγ, to serve as the Max-E control.
HeLa cells with and without IFNγ were dispensed to the respective wells of 384-well assay plates containing the compounds. The plates were incubated for about 48 hours at a 37° C., 5% CO2 incubator. Afterwards, 12 μL of 0.5 M methyl isonipecotate in dimethyl sulfoxide were added into each well and the plates were sealed and incubated at 37° C. without CO2 overnight. The plates were centrifuged for 1 min at 200×g. The resulting fluorescence was measured in a Spectramax plate reader (Molecular Devices) with a 400 nm excitation filter and a 510 nm emission filter.
Potencies were calculated by […] least squares fit to the four parameter logistic IC50 equation.
Take `CC(NC(=O)c1ccc(F)cc1)c1ccc2c(n1)C(F)CCN2C(=O)C1CC1` (single isomer, unassigned) [Example 202, N-(1-(5-(cyclopropanecarbonyl)-8-fluoro-5,6,7,8-tetrahydro-1,5-naphthyridin-2-yl)ethyl)-4-fluorobenzamide]: the half-inhibitory concentration (IC50) was 396 nM.

Take `CC(NC(=O)c1ccc(F)cc1)c1ccc2c(n1)C(F)CCN2C(=O)C1CC1` (single isomer, unassigned) [Example 203, N-(1-(5-(cyclopropanecarbonyl)-8-fluoro-5,6,7,8-tetrahydro-1,5-naphthyridin-2-yl)ethyl)-4-fluorobenzamide]: the IC50 stood at 7510 nM.

As to `CC(NC(=O)c1ccc(F)cc1)c1ccc2c(n1)C(F)CCN2C(=O)C1CC1` (single isomer, unassigned) [Example 204, N-(1-(5-(cyclopropanecarbonyl)-8-fluoro-5,6,7,8-tetrahydro-1,5-naphthyridin-2-yl)ethyl)-4-fluorobenzamide], the 50% inhibitory concentration (IC50) amounted to 228 nM.

On to `CC(C(=O)Nc1ccc(F)cc1)c1ccc2c(c1)CCCN2Cc1cccc(Cl)c1` (single isomer, unassigned) [Example 226, 2-{1-[(3-chlorophenyl)methyl]-1,2,3,4-tetrahydroquinolin-6-yl}-N-(4-fluorophenyl)propanamide], for which the IC50 worked out at 43.6 nM.

Regarding `C[C@@H](NC(=O)c1ccc(Cl)cc1)c1ccc2c(n1)OCCN2C(=O)c1cccc(Cl)c1` (single isomer, unassigned) [Example 255, 4-Chloro-N-(1-(1-(3-chlorobenzoyl)-2,3-dihydro-1H-pyrido[2,3-b][1,4]oxazin-6-yl)ethyl)benzamide], the IC50 amounted to 74.6 nM.

For `CC(C(=O)Nc1ccc(Cl)cc1)c1ccc2c(c1)CC(F)CN2C(=O)c1cccc(Cl)c1` (single isomer, unassigned) [Example 258, 2-(1-(3-chlorobenzoyl)-3-fluoro-1,2,3,4-tetrahydroquinolin-6-yl)-N-(4-chlorophenyl)propanamide], the half-maximal inhibitory concentration (IC50) was determined as 5.86 nM.

As for `O=C(Nc1ccc(F)cc1)C(c1ccc2c(n1)CCCN2C(=O)C1CC1)C1CC1` (single isomer, unassigned) [Example 261, 2-(5-(cyclopropanecarbonyl)-5,6,7,8-tetrahydro-1,5-naphthyridin-2-yl)-2-cyclopropyl-N-(4-fluorophenyl)acetamide], the 50% inhibitory concentration (IC50) was 24 nM.

For `O=C(Nc1ccc(F)cc1)C(c1ccc2c(n1)CCCN2C(=O)C1CC1)C1CC1` (single isomer, unassigned) [Example 262, 2-(5-(cyclopropanecarbonyl)-5,6,7,8-tetrahydro-1,5-naphthyridin-2-yl)-2-cyclopropyl-N-(4-fluorophenyl)acetamide], the IC50 is 11 nM.

As to `CC(NC(=O)c1ccc(F)cc1)c1ccc2c(n1)CCCN2C(=O)C1(C)CCCCO1` (stereo in doubt) [Example 139, 4-fluoro-N-(1-{5-[(2S)-2-methyloxane-2-carbonyl]-5,6,7,8-tetrahydro-1,5-naphthyridin-2-yl}ethyl)benzamide], the IC50 amounted to 348 nM.

For `CC(NC(=O)c1ccc(F)cc1)c1ccc2c(n1)CCCN2C(=O)C1(C)CCCCO1` (stereo in doubt) [Example 140, 4-fluoro-N-(1-{5-[(2R)-2-methyloxane-2-carbonyl]-5,6,7,8-tetrahydro-1,5-naphthyridin-2-yl}ethyl)benzamide], the IC50 is 1620 nM.

Regarding `CCn1ccc(C(=O)N2CCCc3nc(C(C)NC(=O)c4ccc(F)cc4)ccc32)n1` (stereo in doubt) [Example 143, N-{(1R)-1-[5-(1-ethyl-1H-pyrazole-3-carbonyl)-5,6,7,8-tetrahydro-1,5-naphthyridin-2-yl]ethyl}-4-fluorobenzamide], the IC50 came to 11.5 nM.

`CC(NC(=O)c1ccc(F)cc1)c1ccc2c(n1)CCCN2C(=O)c1ccn(C2CC2)n1` (stereo in doubt) [Example 144, N-{(1R)-1-[5-(1-cyclopropyl-1H-pyrazole-3-carbonyl)-5,6,7,8-tetrahydro-1,5-naphthyridin-2-yl]ethyl}-4-fluorobenzamide]: the IC50 came out at 18.1 nM.

Take `CC(NC(=O)c1ccc(F)cc1)c1ccc2c(n1)CCCN2C(=O)C1CCOCC1` (stereo in doubt) [Example 146, 4-fluoro-N-{(1R)-1-[5-(oxane-4-carbonyl)-5,6,7,8-tetrahydro-1,5-naphthyridin-2-yl]ethyl}benzamide]: the IC50 turned out to be 35.5 nM.

`CC(C)CC(=O)N1CCCc2cc(CNC(=O)c3cccc(Cl)c3)ccc21` [Example 2, 3-chloro-N-{[1-(3-methylbutanoyl)-1,2,3,4-tetrahydroquinolin-6-yl]methyl}benzamide]: the IC50 turned out to be 103 nM.

With `CC(C)CC(=O)N1CCCc2cc(CNC(=O)c3ccc(C(C)C)cc3)ccc21` [Example 3, N-{[1-(3-methylbutanoyl)-1,2,3,4-tetrahydroquinolin-6-yl]methyl}-4-(propan-2-yl)benzamide], the IC50 turned out to be 209 nM.

For `Cc1cc(C(=O)NCc2ccc3c(c2)CCCN3C(=O)CC(C)C)ccc1Cl` [Example 4, 4-chloro-3-methyl-N-{[1-(3-methylbutanoyl)-1,2,3,4-tetrahydroquinolin-6-yl]methyl}benzamide], the concentration for half-maximal inhibition (IC50) amounted to 298 nM.

As to `Cc1ccc(C(=O)NCc2ccc3c(c2)CCCN3C(=O)CC(C)C)cc1` [Example 5, 4-methyl-N-{[1-(3-methylbutanoyl)-1,2,3,4-tetrahydroquinolin-6-yl]methyl}benzamide], the concentration for half-maximal inhibition (IC50) was determined as 77.9 nM.

For `COc1ccc(C(=O)NCc2ccc3c(c2)CCCN3C(=O)CC(C)C)cc1` [Example 6, 4-methoxy-N-{[1-(3-methylbutanoyl)-1,2,3,4-tetrahydroquinolin-6-yl]methyl}benzamide], the IC50 came to 56.4 nM.

As for `CC(C)CC(=O)N1CCCc2cc(CNC(=O)c3ccc(C(F)(F)F)cc3)ccc21` [Example 7, N-{[1-(3-methylbutanoyl)-1,2,3,4-tetrahydroquinolin-6-yl]methyl}-4-(trifluoromethyl)benzamide], the IC50 worked out at 42.5 nM.

For the molecule `CC(C)CC(=O)N1CCCc2cc(CNC(=O)c3ccc(Cl)c(Cl)c3)ccc21` [Example 8, 3,4-dichloro-N-{[1-(3-methylbutanoyl)-1,2,3,4-tetrahydroquinolin-6-yl]methyl}benzamide], the IC50 is 276 nM.

Turning to `CC(C)CC(=O)N1CCCc2cc(CNC(=O)c3ccc(Cl)c(F)c3)ccc21` [Example 9, 4-chloro-3-fluoro-N-{[1-(3-methylbutanoyl)-1,2,3,4-tetrahydroquinolin-6-yl]methyl}benzamide], the half-inhibitory concentration (IC50) is 49.3 nM.

In the case of `CC(C)CC(=O)N1CCCc2cc(CNC(=O)c3ccc(F)c(F)c3)ccc21` [Example 10, 3,4-difluoro-N-{[1-(3-methylbutanoyl)-1,2,3,4-tetrahydroquinolin-6-yl]methyl}benzamide], the concentration for half-maximal inhibition (IC50) is 161 nM.

`CC(C)CC(=O)N1CCCc2cc(CNC(=O)c3ccc(F)cc3)ccc21` [Example 11, 4-fluoro-N-{[1-(3-methylbutanoyl)-1,2,3,4-tetrahydroquinolin-6-yl]methyl}benzamide]: the IC50 came to 41.4 nM.

Consider `CC(C)CC(=O)N1CCCc2cc(CNC(=O)c3ccc(I)cc3)ccc21` [Example 12, 4-iodo-N-{[1-(3-methylbutanoyl)-1,2,3,4-tetrahydroquinolin-6-yl]methyl}benzamide], for which the IC50 is 21.1 nM.
